Where two headings read alike, the source gives them in different places.
How the values were obtained:
[1] = system: Male mice (C57BL/6); experiment: Reversal of memantine-induced brain activation ([14C]2DG uptake) in mice; format: in vivo; details: for L.A.D. (lowest active dose) for significant (p<0.05) reduction of 2DG uptake in the hippocampus compared to memantine response: mice, s.c., memantine 20 mg/kg s.c.
Method: Reversal of Memantine-Induced Brain Activation in Mice NMDA receptor hypofunction is hypothesized to be involved in schizophrenia.
Autoradiographic assessment of radiolabeled [^14C]-2-deoxyglucose ([^14C]2DG) uptake is commonly used to investigate brain activation. In humans, cerebral blood flow is increased in specific brain regions after administration of a subanaesthetic dose of ketamine.
Male mice (C57BL/6, weight 24-28 g, fasted overnight; n=10 animals per group) were treated with vehicle or test compound (s.c.) in randomized order (t=0 min). Memantine (20 mg/kg, s.c.) was injected 30 min later (t=30 min). At t=45 min, [^14C]2DG (0.16 μCi/g) was administered intraperitoneally (i.p.), followed by a 45 min uptake period. Animals were decapitated (t=90 min), plasma glucose levels measured, the brain removed, rapidly frozen and stored at −20° C. until sectioned. Brain sections were exposed together to a precalibrated [^14C]standard on film, which was developed after four days of exposure. Local tissue [^14C]concentration (nCi/mg tissue equivalent—TEQ-) in each region of interest was determined.
Data was analyzed statistically using a two-way ANOVA analysis followed by post-hoc tests (memantine response versus reversal by the compound). The results are shown in table 5 below, expressed as lowest active dose (L.A.D.) required to exert a statistically significant (p<0.05) reduction of 2DG uptake in the hippocampus compared to memantine response.

[2] = system: male Wiga Wistar rats; experiment: Conditioned avoidance response (CAR) test; format: in vivo; details: Rattus norvegicus, po, criterion median avoidance latency >8 s, read-out: ED50 CAR-Inh.
Excerpt: The apparatus consisted of an inner box surrounded by an outer box. The inner box was composed of four walls of transparent, synthetic material (length×width×height: 30×30×30 cm), an open top, and a grid floor made of 15 pairs of iron bars (2 mm diameter; 6 mm inter-bar distance). Odd and even bars were connected with a source of alternative current (1.0 mA; Coulbourn Instruments Solid State Shocker/Distributor), which could be interrupted by a switch. The outer box was composed of the same material (length×width×height: 40×40×36 cm), also with an open top, with a distance of 5 cm between the inner and outer box on all sides. To decrease the amount of environmental stimuli, three walls of the outer box were made non-transparent. The front wall was left transparent to allow the necessary inspection of the animal during the test. The upper edge of the outer and inner box served as a target for the rats on which to jump with fore- and hind-paws, respectively.
From their arrival in the laboratory on the experimental day, male Wiga Wistar rats (230±30 g) were housed in individual cages provided with bedding material.
Latency to avoidance was recorded. The median avoidance response obtained over the three experimental sessions for each rat were used for further calculations.

[3] = system: male NMRI mice; experiment: Phencyclidine (PCP)-induced hyperlocomotion in mice; format: in vivo; details: Mus musculus; mice; PCP 5 mg/kg s.c.; criterion total distance <5500 counts; not marked as oral; read-out: ED50 PCP-Inh.
Method: (§1) On the day of experiments, the mice were brought into the procedural room. They were housed individually and allowed to acclimate for at least a half hour prior to testing. Although the studies were conducted during the light cycle (from 8:00 to 16:00 h), the procedure room was only sparsely lit (3 to 30 LUX) to provide better contrast for the video tracking. Local lighting was used for the injection procedures. During each trial, an individual mouse was placed in an open field arena (grey PVC cylinder with a height of 40 cm and a diameter of 22.5 cm). Each arena was placed on an infrared LED (8×8 LEDs)-lit box (white PVC squared box; 40×40 cm^2; height 12.5 cm). Each mouse was placed in the center of the arena and allowed to explore freely for 30 min. After each trial, the arena was cleaned with a wet and subsequently with a dry cleaning cloth. An infrared sensitive tube camera and a white light source (in arena: 4-7 LUX) were mounted to the ceiling above the observation chamber to record and input activity to a computer. Animal behavior was recorded and analyzed using the Noldus Ethovision XT Video Tracking System (Version 3.1; Noldus, Wageningen, The Netherlands). The total distance traveled (cm) was calculated. Data were then exported to data management systems for further analysis and reporting.
Test compound or solvent was administered at a pre-defined time before measurement (standard: 30 min) to male NMRI mice that were challenged with phencyclidine (PCP; 5 mg/kg, s.c.) 30 min before measurement. Activity was measured for a period of 30 min.

[4] = target: T1, human mGluR2 receptor (Homo sapiens, UniProt Q14416); experiment: [35S]GTPγS binding assay (PAM); format: biochemical; details: in presence of glutamate at predetermined EC20; membranes from CHO cells transfected with human mGluR2; read-out: GTPγS -hR2 PAM pEC50 (converted)
T1 construct: expressed in transfected cells; host or cells: CHO cells (membranes)
T1 sequence (Q14416 19-872): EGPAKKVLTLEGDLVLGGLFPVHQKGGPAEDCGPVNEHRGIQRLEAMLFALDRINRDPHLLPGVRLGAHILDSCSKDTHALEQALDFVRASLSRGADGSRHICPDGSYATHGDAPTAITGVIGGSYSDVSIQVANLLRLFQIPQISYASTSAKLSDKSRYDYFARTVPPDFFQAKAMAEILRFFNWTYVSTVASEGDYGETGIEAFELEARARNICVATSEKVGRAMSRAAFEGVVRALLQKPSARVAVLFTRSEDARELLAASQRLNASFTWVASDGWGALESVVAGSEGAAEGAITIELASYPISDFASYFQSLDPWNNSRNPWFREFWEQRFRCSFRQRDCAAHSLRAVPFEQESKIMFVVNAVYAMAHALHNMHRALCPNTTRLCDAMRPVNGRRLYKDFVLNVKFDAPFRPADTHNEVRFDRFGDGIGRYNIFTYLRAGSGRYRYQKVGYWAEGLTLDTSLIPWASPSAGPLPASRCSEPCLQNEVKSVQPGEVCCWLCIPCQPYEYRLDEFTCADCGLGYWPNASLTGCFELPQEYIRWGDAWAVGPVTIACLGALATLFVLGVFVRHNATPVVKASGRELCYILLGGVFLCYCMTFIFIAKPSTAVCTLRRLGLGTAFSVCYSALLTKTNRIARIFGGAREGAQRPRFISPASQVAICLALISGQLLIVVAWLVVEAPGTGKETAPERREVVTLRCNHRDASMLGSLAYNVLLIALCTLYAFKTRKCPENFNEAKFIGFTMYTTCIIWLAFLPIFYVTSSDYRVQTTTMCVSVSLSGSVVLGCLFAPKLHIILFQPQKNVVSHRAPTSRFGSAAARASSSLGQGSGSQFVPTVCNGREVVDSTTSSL
Method: [^35S]GTPγS binding assay
The [^35S]GTPγS binding assay is a functional membrane-based assay used to study G-protein coupled receptor (GPCR) function whereby incorporation of a non-hydrolysable form of GTP, [^35S]GTPγS (guanosine 5′-triphosphate, labelled with […] ^35S), is measured.
CHO-cells were cultured to pre-confluence and stimulated with 5 mM butyrate for 24 h, prior to washing in PBS, and then collected by scraping in homogenisation buffer (50 mM Tris-HCl buffer, pH 7.4, 4° C.). Cell lysates were homogenized briefly using an ultra-turrax homogenizer. The homogenate was centrifuged at 16,000 RPM (Sorvall RC-5C plus rotor SS-34) for 10 minutes and the supernatant discarded. The pellet was resuspended in 5 mM Tris-HCl, pH 7.4 and centrifuged again (18,000 RPM, 20 min, 4° C.). The final pellet was resuspended in 50 mM Tris-HCl, pH 7.4 and stored at −80° C. in appropriate aliquots before use. Protein concentration was determined by the Bradford method (Bio-Rad, USA) with bovine serum albumin as standard.
Measurement of mGluR2 positive allosteric modulatory activity of test compounds was performed as follows. Test compounds and glutamate were diluted in assay buffer containing 10 mM HEPES acid, 10 mM HEPES salt, pH 7.4, 100 mM NaCl, 3 mM MgCl2 and 10 μM GDP. Human mGlu2 receptor-containing membranes were thawed on ice and diluted in assay buffer supplemented with 14 μg/ml saponin. Membranes were pre-incubated with compound alone or together with a predefined (˜EC20) concentration of glutamate (PAM assay) for 30 min at 30° C. After addition of [^35S]GTPγS (f.c. 0.1 nM) microplates were shaken briefly and further incubated to allow [^35S]GTPγS incorporation on activation (30 minutes, 30° C.). Final assay mixtures contained 7 μg of membrane protein in 10 mM HEPES acid, 10 mM HEPES salt, pH 7.4, 100 mM NaCl, 3 mM MgCl2, 10 μM GDP and 10 μg/ml saponin. Total reaction volume was […] Reactions were terminated by rapid filtration through Unifilter-96 GF/B filter plates (Packard, Meriden, Conn.) using a 96-well Packard filtermate harvester. Filters were washed 6 times with ice-cold 10 mM NaH2PO4/10 mM Na2HPO4, pH 7.4. Filters were then air-dried, and 40 μl of liquid scintillation cocktail (Microscint-O) was added to each well. Membrane-bound radioactivity was counted in a Microplate Scintillation and Luminescence Counter from Packard.
obtained in the presence of EC20 of mGluR2 agonist glutamate to determine positive allosteric modulation (PAM)—were generated using the Lexis software interface (developed at J&J). Data were calculated as % of the control glutamate response, defined as the maximal response that is generated upon addition of glutamate alone. Sigmoid concentration-response curves plotting these percentages versus the log concentration of the test compound were analyzed using non-linear regression analysis. The concentration producing half-maximal effect is then calculated as EC50.
All compounds were tested in presence of mGluR2 agonist, glutamate at a predetermined EC20 concentration, to determine positive allosteric modulation (GTPγS-PAM). pEC50 values were calculated from a concentration-response experiment of at least 10 concentrations.

[5] = system: rats; experiment: Sleep wake electroencephalography (SW-EEG) in rats; format: in vivo; details: 3 mg/kg, p.o.
Excerpt: Sleep Wake Electroencephalography (SW-EEG) in Rats SW-EEG analyses are a highly sensitive read-out of a compound's central functional activity that may provide additional insight in the potential therapeutic application (i.e. via drug classification fingerprinting). […] Internal efforts have confirmed that this effect is mGlu2 receptor-mediated, i.e. is absent in mGlu2 KO mice. Sleep abnormalities are often associated with CNS disorders; as such, the potential use of mGlu2 modulators could also have benefit in the treatment of CNS disorders in which (REM) sleep aberrations are manifested. More specifically, the combination of a persistent reduction in REM occurrence and an increase in REM latency is one of the key features of the typical SW architecture fingerprint of most clinically active antidepressants.
We investigated the effects of oral administration of compounds according to the invention on SW organization in rats. The mGlu2/3 receptor agonist LY404039 was also evaluated to allow comparison.

[6] = system: male NMRI mice; experiment: d-Amphetamine-induced hyperlocomotion in mice; format: in vivo; details: Mus musculus, d-amphetamine 5 mg/kg s.c., compound administered orally, read-out: ED50 Amp.-Inh.
Method: as §1, with “An infrared sensitive tube camera and a white light source (in arena: 4-7 LUX) were mounted to the ceiling above the observation chamber to record and input activity to a computer.” left out, “Data were then exported to data management systems for further analysis and reporting.” left out
Test compound or solvent was administered at a pre-defined time before measurement (standard: 30 min) to male NMRI mice that were challenged with d-amphetamine (5 mg/kg, s.c.) 30 min before measurement. Activity was measured for a period of 30 min.

Row | melting point [°C] | EC50 [4] [nM] | Structure (SMILES) | L.A.D. (lowest active dose) for significant (p<0.05) reduction of 2DG uptake in the hippocampus compared to memantine response [1] [mg/kg] | ED50 ([2]; compound administered orally) [mg/kg] | ED50 ([2]; not marked as oral) [mg/kg] | ED50 [3] [mg/kg] | effect on memantine-induced brain glucose metabolism / 2DG uptake (in words) ([1]; mouse brain) | effect on REM sleep (in words) [5] | ED50 [6] [mg/kg]
1 | 130.1 | 209 | Cc1cc(Oc2ccc(-c3ccn4c(CC(F)(F)F)nnc4c3Cl)cc2F)ccn1 [Co. No. 1, 7-[3-Fluoro-4-(2′-methyl-pyridin-4-yloxy)-phenyl]-8-chloro-3-(2,2,2-trifluoro-ethyl)-1,2,4-triazolo[4,3-a]pyridine] | >10 | 21.4 | 12.3 | 18.7 | – | – | –
2 | – | – | N[C@@]1(C(=O)O)CS(=O)(=O)[C@H]2[C@H](C(=O)O)[C@H]21 [LY404039, reference compound] | – | – | – | – | inhibited | affect REM sleep | –
3 | – | 50.1 | Cc1cc(Oc2ccc(-c3ccn4c(CC5CC5)nnc4c3C(F)(F)F)cc2F)ccn1 [Co. No. 2, 7-[3-Fluoro-4-(2′-methyl-pyridin-4-yloxy)-phenyl]-8-trifluoromethyl-3-cyclopropylmethyl-1,2,4-triazolo[4,3-a]pyridine] | 10 | 21.4 | 18.7 | 12.3 | – | – | 28.3
